PubChem BioAssay (NCI)
Where “and” joins values, the source holds several entries; their conditions need not be identical. Equal entries are not always repeated.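 Five concentrations, 48 hours, 96-well plates. The concentration for 50% growth inhibition is given as GI50. TGI is the concentration that stops growth completely.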

Key:
Experiment in all cases: NCI tumour cell line growth inhibition, 48 h
[1] = test system: SK-MEL-2 melanoma
[2] = test system: OVCAR-3 ovarian
[3] = test system: U251 CNS
[4] = test system: A498 renal
[5] = test system: SW-620 colon
[6] = test system: OVCAR-4 ovarian
[7] = test system: MDA-MB-435
[8] = test system: K-562 leukemia
[9] = test system: HCT-15 colon
[10] = test system: SK-MEL-5 melanoma

Structure (SMILES)	GI50 [1]	TGI [1]	GI50 [2]	TGI [2]	GI50 [3]	TGI [3]	GI50 [4]	TGI [4]	GI50 [5]	TGI [5]	GI50 [6]	TGI [6]	GI50 [7]	TGI [7]	GI50 [8]	TGI [8]	GI50 [9]	TGI [9]	GI50 [10]	TGI [10]
CC(=O)N1C/C(=C/c2ccc(Cl)cc2)C(=O)/C(=C/c2ccc(Cl)cc2)C1	2.19 µM	4.56 µM	0.583 µM	1.79 µM	0.337 µM	1.18 µM	1.41 µM	2.89 µM	0.297 µM	0.981 µM	0.795 µM	3.22 µM	0.43 µM	1.82 µM	0.335 µM	> 100 µM	0.446 µM	1.52 µM	1.49 µM	2.9 µM
C[C@]12CC[C@H](OC3OC(CO)C(O)C(O)C3O)C[C@H]1CC[C@@H]1[C@@H]2CC[C@]2(C)[C@@H](C3=CCOC3=O)CC[C@]12O (stereo partly specified)	> 100 µM	50 µM and > 100 µM	42.1 µM and > 100 µM	50 µM and > 100 µM	–	47.2 µM and > 100 µM	> 100 µM	21.1 µM and > 100 µM	> 100 µM	50 µM and > 100 µM	> 100 µM and 20.7 µM	50 µM and > 100 µM	–	> 100 µM	> 100 µM	50 µM and > 100 µM	> 100 µM	50 µM and > 100 µM	> 100 µM	45.7 µM and > 100 µM
C[C@]12CC[C@@H]3c4cc(-c5ccc(F)cc5)c(O)cc4CC[C@H]3[C@@H]1CC[C@@H]2O	5.81 µM	19.8 µM	4.02 µM	20.9 µM	5.54 µM	17.9 µM	3.39 µM	12.2 µM	10.1 µM	21.8 µM	4.04 µM	17.1 µM	11.8 µM	28.6 µM	3.06 µM	18.3 µM	5.61 µM	18.8 µM	9.41 µM	21.2 µM
Cc1ccc(Cc2cnc(NC(=O)/C=C/c3cccc(C)c3)s2)cc1	1.68 µM	> 100 µM	0.0634 µM	0.725 µM	0.144 µM	4.97 µM	0.277 µM	3.14 µM	0.0731 µM	> 100 µM	0.842 µM	4.71 µM	0.0275 µM	0.104 µM	0.0469 µM	> 100 µM	0.049 µM	> 96 µM	0.404 µM	> 100 µM
CNC(=S)NC(=O)c1c(Cl)n(C(=O)OC(C)(C)C)c2ccccc12	> 100 µM	> 100 µM	38.1 µM	> 100 µM	53.6 µM	> 100 µM	51.5 µM	> 100 µM	79.2 µM	> 100 µM	> 100 µM	> 100 µM	44 µM	> 100 µM	> 100 µM	> 100 µM	86 µM	> 100 µM	28.1 µM	> 100 µM
Cc1cc(=O)oc2c(C)c(O)ccc12	–	> 100 µM	–	> 100 µM	–	> 100 µM	–	> 100 µM	–	> 100 µM	–	> 100 µM	–	> 100 µM	–	> 100 µM	–	> 100 µM	–	> 100 µM
COc1cc2ncn(-c3cc(O[C@@H](C)c4ccccc4Cl)c(C(N)=O)s3)c2cc1OC	1.58 µM	> 25 µM	0.513 µM	> 17.4 µM	1.84 µM	> 25 µM	1.08 µM	13.8 µM	0.612 µM	> 25 µM	3.53 µM	> 25 µM	0.146 µM	> 25 µM	0.983 µM	> 25 µM	0.743 µM	> 25 µM	0.247 µM	5.26 µM
C[C@@H](O)[C@H](NC(=O)N[C@@H](CC(N)=O)c1nc([C@@H](N)CO)no1)C(=O)O	> 100 µM	> 100 µM	> 100 µM	> 100 µM	> 100 µM	> 100 µM	> 100 µM	> 100 µM	> 100 µM	> 100 µM	> 100 µM	> 100 µM	> 100 µM	> 100 µM	–	–	> 100 µM	> 100 µM	> 100 µM	> 100 µM
CCN(Cc1ccccc1)c1ccc(CO)c(Cl)c1	3.79 µM	24.7 µM	0.658 µM	3.62 µM	1 µM	50.1 µM	0.042 µM	0.169 µM	1.27 µM	> 100 µM	0.416 µM	12.1 µM	21.4 µM	77.8 µM	2.69 µM	> 100 µM	13.8 µM	> 100 µM	5.83 µM	28.7 µM
Cc1cc(-c2nc3sccn3c2/C=N/N=C(N)N)c(C)s1	–	–	13.2 µM	26 µM	18 µM	32.9 µM	18.8 µM	33.9 µM	21.8 µM	54.5 µM	16.2 µM	35.3 µM	13.3 µM	26.1 µM	15.1 µM	39.1 µM	16.4 µM	30 µM	14.6 µM	30 µM
Cc1ccc(NC2=C(Cl)C(=O)N(Cc3ccc(Cl)cc3)C2=O)cc1O	10.7 µM	26.7 µM	8.88 µM	38.5 µM	4.88 µM	> 100 µM	11.9 µM	25.9 µM	7.76 µM	66.6 µM	25.4 µM	> 100 µM	4.45 µM	26.2 µM	61.8 µM	> 100 µM	–	–	12.6 µM	28 µM
NC1CCC(Nc2nc(NCc3ccc(-c4ccccc4O)nc3)c3ncn(C4CCCC4)c3n2)CC1 (stereo unspecified)	0.0227 µM	0.0583 µM	0.0288 µM	0.0899 µM	0.0294 µM	0.321 µM	0.0233 µM	0.0656 µM	< 0.01 µM	1.23 µM	–	–	0.0119 µM	1.17 µM	–	–	0.21 µM	1.14 µM	0.0313 µM	1.17 µM
N#Cc1ccc2c(c1)C(=O)c1c-2n(CCCCl)c(=O)c2cc([N+](=O)[O-])ccc12	16.9 µM	54.1 µM	8.77 µM	> 100 µM	1.63 µM	16.4 µM	22.8 µM	55.3 µM	0.801 µM	> 100 µM	60.8 µM	> 100 µM	> 100 µM	> 100 µM	–	–	58.4 µM	> 100 µM	5.07 µM	71.5 µM
